Reference: PMC5431875, “In situ click chemistry generation of cyclooxygenase-2 inhibitors” (Nature Communications, 2017)

How the values were obtained:
COX-2 in HCA-7 cells = target: T1, COX-2 in HCA-7 cells (Homo sapiens, UniProt P35354); experiment: Cellular COX-2 inhibitory activity (PGE2 ELISA) in HCA-7 cells; assay type: cell-based; conditions: mean of three determinations, read-out: Cell COX-2 IC50
T1 construct: endogenous in cells; host or cells: HCA-7
T1 sequence (P35354 18-604): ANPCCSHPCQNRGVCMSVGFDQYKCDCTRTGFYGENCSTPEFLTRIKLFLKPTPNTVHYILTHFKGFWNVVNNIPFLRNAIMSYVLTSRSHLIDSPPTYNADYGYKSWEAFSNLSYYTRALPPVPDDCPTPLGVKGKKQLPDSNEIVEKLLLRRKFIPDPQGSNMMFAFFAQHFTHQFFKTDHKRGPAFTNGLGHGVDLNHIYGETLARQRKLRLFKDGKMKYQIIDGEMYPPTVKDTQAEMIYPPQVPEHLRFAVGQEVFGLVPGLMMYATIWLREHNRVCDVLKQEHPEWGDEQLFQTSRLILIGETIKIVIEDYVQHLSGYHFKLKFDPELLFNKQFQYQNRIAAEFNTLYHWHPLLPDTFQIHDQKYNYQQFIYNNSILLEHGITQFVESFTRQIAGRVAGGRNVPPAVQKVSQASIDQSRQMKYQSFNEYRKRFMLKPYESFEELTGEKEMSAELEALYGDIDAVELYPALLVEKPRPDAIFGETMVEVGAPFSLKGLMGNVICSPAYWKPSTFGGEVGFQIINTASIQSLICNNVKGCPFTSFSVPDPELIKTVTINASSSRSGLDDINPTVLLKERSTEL
Protocol: Based on the in vitro COX-2 inhibitory data, seventeen compounds (Table 2) were selected and further evaluated for their cellular COX-2 inhibitory activity in COX-2 expressing colorectal cancer cell line HCA-7. […]
HCA-7 cells (colorectal cancer cell line, COX-2 expression is confirmed with immunoblotting). The HCA-7 cells were cultured in T75 flasks using DMEM/F12 (1:1) medium supplemented with 10% (v/v) fetal bovine […]
were washed three times for 5 min with 1 ml PBS. Cells were negatively tested for mycoplasma contamination either by the vendor or in house. […]
vehicle (solvent) at concentration range of 10−9 M to 10−3 M. After 30 min incubation the reaction was stopped on ice and supernatants were taken and COX-2 mediated production of PGE2 was immediately determined […]
concentration is quantified by following manufacturer assay procedure. All experiments were done three times and ±s.e.m. were calculated.
The PRISM5 software was used to calculate IC50 values.

pure human COX-2 protein = target: T2, pure human COX-2 protein (Homo sapiens, UniProt P35354); experiment: Isothermal titration calorimetry; assay type: binding; conditions: ITC
T2 sequence (P35354 18-604): T1 sequence (P35354 18-604)
Protocol: The thermodynamics of the precursor 5-azido-pyrazole (14) binding with pure human COX-2 protein studied with a high sensitivity ITC instrument (VP-ITC, MicroCal). All titrations were performed by following VP-ITC general procedure described in manual. Protein (20 µM) and ligand (200 µM) solution were prepared in PBS buffer, pH 7.4. Prior to each ITC run, all solutions were filtered using membrane filters (pore size 0.45 μm) and thoroughly stirred and degassed using Thermovac accessory for 20 min to remove any air bubbles at 25 °C. In a typical experiment, aliquots (6 µl) of ligand solution (prepared at 10 times the COX-2 protein concentration) were injected with a computer-controlled stirrer-syringe into a reaction cell containing COX-2 protein. Titrations were carried out with a stirring speed of 400 rpm and 240 s intervals between injections. All experiments were conducted at 25 °C. Control experiments, including titration of the ligand into buffer alone or COX-2 protein into buffer alone, were carried to determine the heat due to dilution and subtracting during the original experiment. Calorimetric data analysis was performed with ORIGIN software provided by MicroCal. All results, including the binding constant (K a), stoichiometry of binding (N), and thermodynamics of binding (ΔH and TΔS) were determined by fitting the experimental binding isotherms.

Stability in human serum = assay type: in vitro ADME; conditions: 37 °C, up to 30 h
Protocol: Stock solutions of compounds 5, 14, 18 and 21 (10 mM) were prepared in DMSO for molecular biology. A Solution of each compound (10 mM) was added to freshly thaw human serum (from human male AB plasma, USA origin, sterile-filtered, Sigma– Aldrich) at 37 °C; the final concentration of the compound was 100 µM. The resulting solution was incubated at 37 °C and at various time intervals (0 to 30 h) 200 µL reaction mixture samples was taken and added to 200 µL of acetonitrile containing 0.1% trifluoroacetic acid in order to deproteinize the proteins. Into each sample mixture, 10 μL of an internal standard solution (2 mM solution in methanol) was added. Sample mixture was sonicated, vortexed and then centrifuged for 15 min. at 2150 × g. The clear supernatant was transferred into the fresh tube for LCMS analysis, with a similar method described for the in situ click LC-MS studies. […]

Stability in rat serum = assay type: in vitro ADME; conditions: 37 °C, up to 30 h
recombinant human COX-2 = target: T3, recombinant human COX-2 (Homo sapiens, UniProt P35354); experiment: COX inhibitor assay (Cayman 700100), COX-2
T3 sequence (P35354 18-604): T1 sequence (P35354 18-604)
Protocol: (§1) Each compound was assayed in concentration range of 10^−9 M to 10^−3 M, in triplicate. PRISM5 software was used to calculate IC50 values.

ovine COX-1 = target: T4, ovine COX-1 (Ovis aries, UniProt P05979); experiment: COX inhibitor assay (Cayman 700100), COX-1
T4 sequence (P05979 25-600): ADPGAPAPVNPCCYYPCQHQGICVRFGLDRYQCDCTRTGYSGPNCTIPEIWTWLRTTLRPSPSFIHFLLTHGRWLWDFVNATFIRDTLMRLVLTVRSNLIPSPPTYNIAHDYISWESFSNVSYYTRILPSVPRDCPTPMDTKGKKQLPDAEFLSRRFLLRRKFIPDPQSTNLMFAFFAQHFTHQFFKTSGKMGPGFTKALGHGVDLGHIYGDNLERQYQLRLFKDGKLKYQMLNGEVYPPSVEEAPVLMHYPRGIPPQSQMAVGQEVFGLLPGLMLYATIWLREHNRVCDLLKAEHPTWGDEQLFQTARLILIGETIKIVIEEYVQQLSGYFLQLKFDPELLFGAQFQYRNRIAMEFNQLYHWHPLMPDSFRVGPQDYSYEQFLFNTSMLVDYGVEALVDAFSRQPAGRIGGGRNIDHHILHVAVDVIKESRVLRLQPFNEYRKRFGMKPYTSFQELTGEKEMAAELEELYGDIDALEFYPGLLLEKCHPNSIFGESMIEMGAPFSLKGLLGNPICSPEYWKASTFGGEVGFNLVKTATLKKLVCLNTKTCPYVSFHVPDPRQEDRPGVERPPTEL
Protocol: as §1

SMILES: Cc1cc(N=[N+]=[N-])n(-c2ccc(S(C)(=O)=O)cc2)n1 [Compound 14, 5-azido-1-(4-methanesulfonyl-phenyl)-3-methyl-1H-pyrazole]
- IC50 (COX-2 in HCA-7 cells): 10 µM
- Enthalpy change, ΔH (pure human COX-2 protein; 298.15 K): -8.248 kcal/mol
- Entropy change, TΔS (pure human COX-2 protein; 298.15 K): 0.404 kcal/mol
- Free energy change, ΔG (pure human COX-2 protein; 298.15 K): -8.652 kcal/mol
- Binding stoichiometry, N (pure human COX-2 protein; PBS pH 7.4, 25 °C): 1.02 ± 0.0259
- Stability in human serum (Stability in human serum): no significant degradation
- Stability in rat serum (Stability in rat serum): no significant degradation
- melting point: 131 to 133 °C
- IC50 (recombinant human COX-2): 4.4 µM
- COX-2 SI (selectivity index) (recombinant human COX-2; (COX-1 IC50)/(COX-2 IC50)): >22.7
- IC50 (ovine COX-1): > 100 µM
